Experimental data published in patent publication US9884842B2, “Combretastatin analogs” (The Board of Trustees of the University of Arkansas, priority 2013, dated 2018).

What follows are compounds tested on SF-295 (assay: NCI growth inhibition and cytotoxicity screen, CNS Cancer panel). Conditions: Homo sapiens; Table 2; cell line SF-295 (CNS Cancer).
Assay type: cell-based
Work on COc1cc(OC)cc(/C(C#N)=C/c2cnc3ccccc3c2)c1 [PNR-4-85, (Z)-3-(quinolin-3-yl)-2-(3,5-dimethoxyphenyl)acrylonitrile] yielded a GI50 of 243 nM.

Same assay, conditions: Homo sapiens; Table 2; cell line SF-295 (CNS Cancer); read-out: LC50 (the source's name)
Compound COc1cc(OC)cc(/C(C#N)=C/c2cnc3ccccc3c2)c1 [PNR-4-85, (Z)-3-(quinolin-3-yl)-2-(3,5-dimethoxyphenyl)acrylonitrile] has a CC50 of over 100000 nM.

What follows are compounds tested on SNB-19 in the same assay as above. Conditions: Homo sapiens, SNB-19.
In the case of COc1cc(OC)cc(/C(C#N)=C/c2cnc3ccccc3c2)c1 [PNR-4-85, (Z)-3-(quinolin-3-yl)-2-(3,5-dimethoxyphenyl)acrylonitrile], the GI50 is reported as 614 nM.

Same assay, conditions: Homo sapiens, SNB-19, read-out: LC50
COc1cc(OC)cc(/C(C#N)=C/c2cnc3ccccc3c2)c1 [PNR-4-85, (Z)-3-(quinolin-3-yl)-2-(3,5-dimethoxyphenyl)acrylonitrile] was tested, and the CC50 was over 100000 nM.

The compounds below were run on UO-31 (assay: NCI growth inhibition and cytotoxicity screen, Renal Cancer panel). Conditions: Homo sapiens, UO-31, read-out: LC50.
With COc1cc(OC)cc(/C(C#N)=C/c2cnc3ccccc3c2)c1 [PNR-4-85, (Z)-3-(quinolin-3-yl)-2-(3,5-dimethoxyphenyl)acrylonitrile] the CC50 was over 100000 nM.

The compounds below were run on HT29 (assay: NCI growth inhibition and cytotoxicity screen, Colon Cancer panel). Conditions: Homo sapiens, HT-29.
For COc1cc(OC)cc(/C(C#N)=C/c2cnc3ccccc3c2)c1 [PNR-4-85, (Z)-3-(quinolin-3-yl)-2-(3,5-dimethoxyphenyl)acrylonitrile], the GI50 was 362 nM.

Same assay, conditions: Homo sapiens, HT-29, read-out: LC50
With COc1cc(OC)cc(/C(C#N)=C/c2cnc3ccccc3c2)c1 [PNR-4-85, (Z)-3-(quinolin-3-yl)-2-(3,5-dimethoxyphenyl)acrylonitrile] the CC50 was over 100000 nM.

Each compound was assayed on NCI-H226 (assay: NCI growth inhibition and cytotoxicity screen, Lung Cancer panel). Conditions: Homo sapiens, NCI-H226.
For COc1cc(OC)cc(/C(C#N)=C/c2cnc3ccccc3c2)c1 [PNR-4-85, (Z)-3-(quinolin-3-yl)-2-(3,5-dimethoxyphenyl)acrylonitrile], the GI50 was 62200 nM.

Same assay, conditions: Homo sapiens, NCI-H226, read-out: LC50
COc1cc(OC)cc(/C(C#N)=C/c2cnc3ccccc3c2)c1 [PNR-4-85, (Z)-3-(quinolin-3-yl)-2-(3,5-dimethoxyphenyl)acrylonitrile] showed a CC50 of over 100000 nM.

Each compound was assayed on NCI-H522 in the same assay as above. Conditions: Homo sapiens; Table 2; cell line NCI-H522 (Lung Cancer).
Assay type: cell-based
Compound COc1cc(OC)cc(/C(C#N)=C/c2cnc3ccccc3c2)c1 [PNR-4-85, (Z)-3-(quinolin-3-yl)-2-(3,5-dimethoxyphenyl)acrylonitrile] has a GI50 of 69 nM.

Same assay, conditions: Homo sapiens; Table 2; cell line NCI-H522 (Lung Cancer); read-out: LC50 (the source's name)
With COc1cc(OC)cc(/C(C#N)=C/c2cnc3ccccc3c2)c1 [PNR-4-85, (Z)-3-(quinolin-3-yl)-2-(3,5-dimethoxyphenyl)acrylonitrile] the CC50 was over 100000 nM.

Each compound was assayed on UACC-257 (assay: NCI growth inhibition and cytotoxicity screen, Melanoma panel). Conditions: Homo sapiens, UACC-257.
COc1cc(OC)cc(/C(C#N)=C/c2cnc3ccccc3c2)c1 [PNR-4-85, (Z)-3-(quinolin-3-yl)-2-(3,5-dimethoxyphenyl)acrylonitrile] showed a GI50 of 12800 nM.

Same assay, conditions: Homo sapiens, UACC-257, read-out: LC50
With COc1cc(OC)cc(/C(C#N)=C/c2cnc3ccccc3c2)c1 [PNR-4-85, (Z)-3-(quinolin-3-yl)-2-(3,5-dimethoxyphenyl)acrylonitrile] the CC50 was over 100000 nM.

These compounds were tested on NCI-H23 (assay: NCI growth inhibition and cytotoxicity screen, Lung Cancer panel). Conditions: Homo sapiens, NCI-H23.
COc1cc(OC)cc(/C(C#N)=C/c2cnc3ccccc3c2)c1 [PNR-4-85, (Z)-3-(quinolin-3-yl)-2-(3,5-dimethoxyphenyl)acrylonitrile] gave a GI50 of 747 nM.

Same assay, conditions: Homo sapiens, NCI-H23, read-out: LC50
COc1cc(OC)cc(/C(C#N)=C/c2cnc3ccccc3c2)c1 [PNR-4-85, (Z)-3-(quinolin-3-yl)-2-(3,5-dimethoxyphenyl)acrylonitrile] showed a CC50 of over 100000 nM.

These compounds were tested on COLO 205 (assay: NCI growth inhibition and cytotoxicity screen, Colon Cancer panel). Conditions: Homo sapiens, COLO 205.
Work on COc1cc(OC)cc(/C(C#N)=C/c2cnc3ccccc3c2)c1 [PNR-4-85, (Z)-3-(quinolin-3-yl)-2-(3,5-dimethoxyphenyl)acrylonitrile] yielded a GI50 of 398 nM.

Same assay, conditions: Homo sapiens, COLO 205, read-out: LC50
COc1cc(OC)cc(/C(C#N)=C/c2cnc3ccccc3c2)c1 [PNR-4-85, (Z)-3-(quinolin-3-yl)-2-(3,5-dimethoxyphenyl)acrylonitrile] showed a CC50 of 89900 nM.

These compounds were tested on MCF7 (assay: NCI growth inhibition and cytotoxicity screen, Breast Cancer panel). Conditions: Homo sapiens, MCF7.
For COc1cc(OC)cc(/C(C#N)=C/c2cnc3ccccc3c2)c1 [PNR-4-85, (Z)-3-(quinolin-3-yl)-2-(3,5-dimethoxyphenyl)acrylonitrile], the GI50 was 333 nM.

Same assay, conditions: Homo sapiens, MCF7, read-out: LC50
In the case of COc1cc(OC)cc(/C(C#N)=C/c2cnc3ccccc3c2)c1 [PNR-4-85, (Z)-3-(quinolin-3-yl)-2-(3,5-dimethoxyphenyl)acrylonitrile], the CC50 is reported as over 100000 nM.

Each compound was assayed on M14 (assay: NCI growth inhibition and cytotoxicity screen, Melanoma panel). Conditions: Homo sapiens, M14.
Compound COc1cc(OC)cc(/C(C#N)=C/c2cnc3ccccc3c2)c1 [PNR-4-85, (Z)-3-(quinolin-3-yl)-2-(3,5-dimethoxyphenyl)acrylonitrile] has a GI50 of 310 nM.

Same assay, conditions: Homo sapiens, M14, read-out: LC50
In the case of COc1cc(OC)cc(/C(C#N)=C/c2cnc3ccccc3c2)c1 [PNR-4-85, (Z)-3-(quinolin-3-yl)-2-(3,5-dimethoxyphenyl)acrylonitrile], the CC50 is reported as over 100000 nM.

Each compound was assayed on RPMI-8226 (assay: NCI growth inhibition and cytotoxicity screen, Leukemia panel). Conditions: Homo sapiens, RPMI-8226.
Compound COc1cc(OC)cc(/C(C#N)=C/c2cnc3ccccc3c2)c1 [PNR-4-85, (Z)-3-(quinolin-3-yl)-2-(3,5-dimethoxyphenyl)acrylonitrile] has a GI50 of 332 nM.

Same assay, conditions: Homo sapiens, RPMI-8226, read-out: LC50
Work on COc1cc(OC)cc(/C(C#N)=C/c2cnc3ccccc3c2)c1 [PNR-4-85, (Z)-3-(quinolin-3-yl)-2-(3,5-dimethoxyphenyl)acrylonitrile] yielded a CC50 of over 100000 nM.

The compounds below were run on OVCAR-8 (assay: NCI growth inhibition and cytotoxicity screen, Ovarian Cancer panel). Conditions: Homo sapiens, OVCAR-8.
COc1cc(OC)cc(/C(C#N)=C/c2cnc3ccccc3c2)c1 [PNR-4-85, (Z)-3-(quinolin-3-yl)-2-(3,5-dimethoxyphenyl)acrylonitrile] was tested, and the GI50 was 584 nM.

Same assay, conditions: Homo sapiens, OVCAR-8, read-out: LC50
With COc1cc(OC)cc(/C(C#N)=C/c2cnc3ccccc3c2)c1 [PNR-4-85, (Z)-3-(quinolin-3-yl)-2-(3,5-dimethoxyphenyl)acrylonitrile] the CC50 was over 100000 nM.

What follows are compounds tested on NCI/ADR-RES in the same assay as above. Conditions: Homo sapiens.
COc1cc(OC)cc(/C(C#N)=C/c2cnc3ccccc3c2)c1 [PNR-4-85, (Z)-3-(quinolin-3-yl)-2-(3,5-dimethoxyphenyl)acrylonitrile] showed a GI50 of 224 nM.

Same assay, conditions: Homo sapiens, read-out: LC50
Work on COc1cc(OC)cc(/C(C#N)=C/c2cnc3ccccc3c2)c1 [PNR-4-85, (Z)-3-(quinolin-3-yl)-2-(3,5-dimethoxyphenyl)acrylonitrile] yielded a CC50 of over 100000 nM.
